Numbers after ± are expanded uncertainties.
Conditions: 293.15 K; 101.33 kPa; Liquid; transient hot wire

| thermal conductivity | SMILES |
| --- | --- |
| 0.25 ± 0.004 W/m/K | OCCO [1,2-ethanediol] |
| 0.597 ± 0.01 W/m/K | O [water] |

From the NIST ThermoML archive (doi:10.1016/j.tca.2018.01.008)
